In patent US10179107B2, “Tablet containing dehydroepiandrosterone (DHEA)” (PANTARHEI BIOSCIENCE B.V., priority 2011, dated 2019):

Assay: Daily oral administration of DHEA to female users of hormonal oral contraceptives
Assay type: in vivo, human
Settings: daily oral dosage of around 50 mg
From the text: DHEA can be administered by different routes. Unlike various other known androgens, DHEA is orally active. […] Apart from the ability of DHEA to restore and normalize androgen levels, important significant clinical benefits have been observed on several aspects of sexual function (arousability, responsivity, genital sensation, lubrication), mood and menstrual distress symptoms.

SMILES: C[C@]12CC[C@H](O)CC1=CC[C@@H]1[C@@H]2CC[C@]2(C)C(=O)CC[C@@H]12 [DHEA, 3-beta-hydroxyandrost-5-en-17-one]
- estradiol levels: without increasing estradiol levels
- excessively high testosterone levels or clinical symptoms of hyperandrogenicity: without causing excessively high testosterone levels or clinical symptoms of hyperandrogenicity
- normalization of free testosterone: at least 50%
- normalization of total testosterone: normalizes total testosterone completely
